Experimental data: US8324209B2, “Pesticidal compositions” (Dow AgroSciences, LLC, priority 2008, dated 2012)

Test system: cotton aphid (Aphis gossypii)
Assay: Insecticidal test for cotton aphid in foliar spray assay on squash
Assay type: in vivo
Conditions: 200 ppm foliar spray on squash cotyledons; live aphids counted after 3 days; Corrected % Control (Abbott's formula); 4 replications
Procedure: The compounds identified in the foregoing examples were tested against cotton aphid using procedures described hereinafter. Insecticidal Test for Cotton Aphid (Aphis gossypii) in Foliar Spray Assay Squash seedlings with fully expanded cotyledon leaves were trimmed to one cotyledon per plant and infested with cotton aphid (wingless adults and nymphs) 1 day prior to chemical application. Each plant was examined before chemical application to ensure uniform infestation (ca. 30-70 aphids per plant). Compounds (2 mg) were dissolved in 2 mL of acetone/methanol (1:1) solvent, forming stock solutions of 1000 ppm. The stock solutions were diluted 5× with 0.025% Tween 20 in H2O to obtain a solution at 200 ppm. A hand-held Devilbiss aspirator type sprayer was used to apply the spray solutions until runoff to both sides of the squash cotyledon leaves. Four plants (4 replications) were used for each compound. Reference plants (solvent check) were sprayed with the diluent only. Treated plants were held in a holding room for 3 days at approximately 23° C. and 40% relative humidity (RH) before the number of live aphids on each plant was recorded. Insecticidal activity was measured by Corrected % Control using Abbott's correction formula and presented in Table 1-Activity: Corrected % Control=100*(X−Y)/X • where X=No. of live aphids on solvent check plants • Y=No. of live aphids on treated plants Results are shown in Table 1.

CC(c1cnc(Cl)nc1)S(C)(=O)=NC#N (stereo not drawn) [Compound 1, [1-(2-chloropyrimidin-5-yl)ethyl](methyl)oxido-λ^4-sulfanylidenecyanamide]
% Control at ppm, against cotton aphid on squash (foliar spray): A (80-100)

CS(=O)(Cc1ccc(Cl)nn1)=NC#N (stereo not drawn) [Compound 2, [(3-chloropyridazin-6-yl)methyl](methyl)oxido-λ^4-sulfanylidenecyanamide]
% Control at ppm, against cotton aphid on squash (foliar spray): A (80-100)

CC(c1cnc(C(F)(F)F)nc1)S(C)(=O)=NC#N (stereo not drawn) [Compound 3, methyl(oxido){1-[2-(trifluoromethyl)pyrimidin-5-yl]ethyl}-λ^4-sulfanylidenecyanamide]
% Control at ppm, against cotton aphid on squash (foliar spray): A (80-100)
